From US20250092058A1 (priority 2018, published 2025)

Columns and labels:
[1] = tested on: survivin, Mcl-1, XIAP, cIAP2; assay: Western blots of anti-/pro-apoptotic proteins in PANC1 and Mia2; assay type: cell-based, human; details: 16 h to 48 h, dose-dependent
Description: (§1) Western blotting/Immunoblotting. […] Fifty μg total protein from each sample were heated at 95° C. for 5 minutes after mixing with equal volume of 2×SDS loading buffer. Samples were separated on 12-15% SDS-polyacrylamide gel electrophoresis (SDS-PAGE) gels and electrotransferred to Pure Nitrocellulose Membranes (Bio-Rad, Hercules, CA). The membrane was then blocked in 5% skim milk in TBS-T buffer (20 mM Tris/HCl pH 7.5, 0.137 M NaCl, and 0.1% Tween 20) at room temperature for 2-3 hours. Next, the membrane was incubated with different primary antibodies in TBS-T containing 5% BSA overnight at 4° C. in the range of dilutions from 1:500 to 1:2000. After washing with TBS-T, the membrane was incubated in TBS-T buffer containing 5% skim milk and corresponding secondary antibody (1:5000) for 45-60 minutes at room temperature with shaking. Protein of interest was detected using Western Lightning Plus—ECL (Perkin Elmer, Waltham, MA) and visualized by various times (3-120 seconds) of exposure. Actin was detected as the internal control to normalize total protein loading for each sample.

ERCC6, γ-H2AX = assay: Western blots of DNA damage/repair proteins in PANC1; assay type: cell-based, human
Description: as §1

SMILES: CC[C@@]1(O)C(=O)OCc2c1cc1n(c2=O)Cc2cc3cc4c(cc3nc2-1)OCO4 [FL118, 10,11-methylenedioxy-camptothecin]
- expression of antiapoptotic proteins (XIAP, cIAP2, Mcl-1 or survivin) [1]: differentially modulates the expression of antiapoptotic proteins
- expression of ERCC6 and γ-H2AX (ERCC6, γ-H2AX): strongly decreased the expression of ERCC6 and induced γ-H2AX
